Measured values as given in patent US12419889B2, “Methods of treating chronic spontaneous urticaria using a bruton's tyrosine kinase inhibitor” (NOVARTIS AG, priority 2019, dated 2025).

What was measured:
Format in all cases: in vivo
[1] = First-in-human study, blood and urine PK (SAD, MAD q.d., b.i.d.); settings: for drug accumulation ratio (Racc): MAD q.d.
Experimental: A first-in-human study was conducted to assess the safety and tolerability, pharmacokinetics (PK) and pharmacodynamics (PD) of single and multiple doses of compound (I) both as once daily (qd) and twice daily (bid) oral administration in healthy volunteers and those with atopic diathesis, to support further clinical development of compound (I) in autoimmune diseases. This study also explored the effect of food intake.
First-in-human study in up to approximately 168 healthy volunteers (HVs), of which 64 (in Parts 2 & 4) had asymptomatic atopic diathesis. • Part 1 was a double-blind (subject and investigator blind, sponsor unblinded), placebo-controlled single ascending dose (SAD) escalation study of 10 cohorts (N=80) • Part 2 was a double-blind (subject and investigator blind, sponsor unblinded), placebo-controlled multiple ascending dose (MAD) (13 doses over 12 days) escalation study employing once daily dosing in 6 cohorts in healthy volunteers with asymptomatic atopic diathesis (N=48) • Part 3 was a single dose open-label crossover food effect study in 12 HVs • Part 4 was a double-blind (subject and investigator blind, sponsor unblinded), placebo-controlled multiple dose (25 doses over 12 days) study employing twice daily dosing in 2 cohorts of healthy volunteers with asymptomatic atopic diathesis (N=16)
The SAD part (Part 1) had ten dose levels and the MAD parts (Parts 2 & 4) consisted of eight dose levels (6 cohorts using single daily dosing in Part 2 and 2 cohorts using twice daily dosing in Part 4). Eight subjects were randomized into each cohort to receive either compound (I) or matching placebo in a 6:2 (active: placebo) ratio in the SAD and MAD parts. Within the SAD part, doses up to approximately 4 times the estimated pharmacologically active dose (PAD) were to be evaluated before the MAD part of the study was started, providing there was no safety signal emerging from the SAD part until then.
In Part 1, subjects were admitted to the study site on Day −2 or −1 for baseline safety assessments and to confirm eligibility. Eligible subjects received a single dose of compound (I) or placebo under fasting conditions on Day 1. They were domiciled from Day −1 to the morning of Day 5 (96 hours post last drug administration).
In Parts 2 and 4, subjects were admitted on Day −2 or −1 for baseline safety assessments and to confirm eligibility. Eligible subjects received the first dose of compound (I) under fasting conditions on Day 1, and continued to take study medication under fasting conditions up to and including Day 12. Subjects were domiciled from Day −2 or −1 until the morning of Day 16, which equals 96 hours after the last dose of compound (I) was received. In Parts 2 and 4, the study medication was given once daily and twice daily respectively (details are found in the schedule of assessments).
Subjects were assigned to one of the following 10 cohorts. In each cohort, 8 subjects were randomized to either compound (I) or matching placebo in an overall 6:2 ratio. The first sub-cohort was randomized in a 1:1 ratio as one subject on compound (I) and one on matching placebo. […]

[2] = First-in-human study Part 3, food effect PK
Description: Part 3 was an open-label, randomized, two-way cross-over, single dose study to assess food effects. In Part 3, each subject participated in a 28 day screening period (Day −29 to −2), 2 baseline (Day −1) and 2 treatment periods, each consisting of a single dose administration on Day 1 followed by safety and PK assessment up to Day 5. Treatment period 2 consisted of a follow-up visit and an end of study evaluation on Day 22 and 40, respectively. The two treatment periods were separated by a wash-out period of at least 18 days (+1-1 day).
Subjects were randomized to one of the 2 treatment sequences (Table 9) in the ratio of 1:1. Definition of treatment sequences for Part 3
Pharmacokinetic samples were obtained in blood and evaluated in all subjects at all dose levels. The samples from placebo subjects were not analyzed. The samples for PK assessments from subjects were collected at time points defined in the study. Compound (I) concentrations were determined in blood by a validated LC-MS/MS method.

[3] = target: T1, BTK (Homo sapiens, UniProt Q06187); experiment: BTK occupancy in human whole blood (free and total BTK, ELISA on MSD platform)
T1 construct: from tissue; host or cells: human whole (peripheral) blood of healthy volunteers and atopic subjects
Experimental: Pharmacodynamics (PD) was characterized by assessing target occupancy and distal pathway inhibition. Measurements of BTK occupancy in human whole blood (derived as ratio of free and total BTK), served as direct marker of therapeutic target engagement.
Compound of formula (I) is an irreversible inhibitor of BTK, the extent and duration of BTK occupancy were determined.
The relationship between dose and pharmacodynamics was characterized by measurements of BTK occupancy in human blood (derived as ratio of free and total BTK), a direct marker of therapeutic target engagement. BTK occupancy was determined for single ascending doses ranging 0.5 to 400 mg, for q.d. multiple ascending doses ranging from of 10 mg and 400 mg, and for b.i.d. multiple ascending doses of 100 mg and 200 mg.

T1 sequence (Q06187 whole entry): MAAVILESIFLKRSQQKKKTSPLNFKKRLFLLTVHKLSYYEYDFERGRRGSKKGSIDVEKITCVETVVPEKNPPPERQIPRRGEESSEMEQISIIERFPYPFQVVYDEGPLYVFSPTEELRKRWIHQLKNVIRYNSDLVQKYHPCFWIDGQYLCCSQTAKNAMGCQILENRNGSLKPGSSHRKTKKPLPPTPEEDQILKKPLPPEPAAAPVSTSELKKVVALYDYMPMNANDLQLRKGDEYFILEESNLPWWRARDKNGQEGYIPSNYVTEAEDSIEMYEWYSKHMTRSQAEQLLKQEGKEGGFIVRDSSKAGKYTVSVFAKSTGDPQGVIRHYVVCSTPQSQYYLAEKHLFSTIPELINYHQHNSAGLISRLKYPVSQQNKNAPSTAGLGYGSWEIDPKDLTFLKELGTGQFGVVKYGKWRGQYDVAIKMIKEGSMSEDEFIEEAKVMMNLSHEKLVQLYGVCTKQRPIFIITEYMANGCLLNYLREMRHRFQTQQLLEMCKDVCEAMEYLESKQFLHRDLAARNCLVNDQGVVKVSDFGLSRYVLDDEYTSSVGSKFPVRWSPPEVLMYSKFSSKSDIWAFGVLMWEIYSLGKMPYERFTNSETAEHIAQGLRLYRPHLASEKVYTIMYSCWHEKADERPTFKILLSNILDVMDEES

C=CC(=O)N(C)CCOc1c(N)ncnc1-c1cc(F)cc(NC(=O)c2ccc(C3CC3)cc2F)c1C [Compound (I), N-(3-(6-Amino-5-(2-(N-methylacrylamido)ethoxy)pyrimidin-4-yl)-5-fluoro-2-methylphenyl)-4-cyclopropyl-2-fluorobenzamide]
Renal clearance, mean ± SD ([1]; Day 12, 400 mg qd): 16.9 ± 7.13 mL/min | drug accumulation ratio (Racc) ([1]; day 12 vs day 1, high dose): 1.2 | drug accumulation ratio (Racc) ([1]; day 12 vs day 1, low dose): 5 | MRT, median ([1]; blood, Day 1, 10 mg qd): 0.766 h | MRT, median ([1]; blood, Day 1, 25 mg qd): 1.17 h | AUC0-24, median ([1]; blood, Day 1, 600 mg qd): 932 ng·h/mL | CLss/F, mean ± SD ([1]; blood, Day 12, 10 mg qd): 425 ± 64.8 L/h | CLss/F, median (min-max) ([1]; blood, Day 12, 10 mg qd): 423 (341-529) L/h | AUC0-24, mean ± SD ([1]; blood, Day 12, 25 mg qd): 117 ± 60.9 ng·h/mL | AUClast, mean ± SD ([1]; blood, Day 12, 25 mg qd): 114 ± 59.7 ng·h/mL | CLss/F, mean ± SD ([1]; blood, Day 12, 25 mg qd): 307 ± 253 L/h | CLss/F, median (min-max) ([1]; blood, Day 12, 25 mg qd): 248 (129-809) L/h | AUC0-24, mean ± SD ([1]; blood, Day 12, 50 mg qd): 209 ± 80.2 ng·h/mL | AUC0-24, median (min-max) ([1]; blood, Day 12, 50 mg qd): 181 (127-325) h * ng/mL | CLss/F, mean ± SD ([1]; blood, Day 12, 50 mg qd): 268 ± 92.8 L/h | CLss/F, median (min-max) ([1]; blood, Day 12, 50 mg qd): 276 (154-395) L/h | CLss/F, mean ± SD ([1]; blood, Day 12, 100 mg qd): 198 ± 88.7 L/h | CLss/F, median (min-max) ([1]; blood, Day 12, 100 mg qd): 166 (129-298) L/h | CLss/F, mean ± SD ([1]; blood, Day 12, 400 mg qd): 366 ± 150 L/h | CLss/F, median (min-max) ([1]; blood, Day 12, 400 mg qd): 351 (177-591) L/h | CLss/F, mean ± SD ([1]; blood, Day 12, 600 mg qd): 521 ± 131 L/h | CLss/F, median (min-max) ([1]; blood, Day 12, 600 mg qd): 569 (345-661) L/h | Cmax, median (min-max) ([1]; blood, Day 12, 600 mg qd): 475 (377-985) ng/mL | increase of Cmax from 100 mg to 200 mg b.i.d. ([1]; day 12): 1.33 fold | oral blood clearance CL/F, estimate across all cohorts ([1]; single dose, all SAD cohorts): about 383 L/h | Tmax ([2]; human, whole blood, single oral dose 60 mg, fasted): 1 h | AUC0-24, GeoMean ([2]; single dose 60 mg, FAST): 182.08 ng·h/mL | AUClast, GeoMean ([2]; single dose 60 mg, FAST): 177.17 ng·h/mL | Tlast, GeoMean ([2]; single dose 60 mg, FAST): 9.66 h | Tlast, Mean ([2]; single dose 60 mg, FAST): 10.50 h | Tmax, Mean ([2]; single dose 60 mg, FAST): 1.02 h | Tlast, GeoMean ([2]; single dose 60 mg, FED): 9.25 h | Tlast, Mean ([2]; single dose 60 mg, FED): 9.50 h | higher AUC0-24 fed vs fasted ([2]; single oral dose 60 mg): 1.4 fold | lower Cmax fed vs fasted ([2]; single oral dose 60 mg): 1.25 fold | BTK occupancy in blood ([3]; 10 mg q.d.): nearly complete | duration of BTK occupancy in blood ([3]; blood): > 24 h | median BTK turnover T1/2 ([3]; blood, after single dose): about 48 hours | time to refresh BTK protein pool to pre-dose levels ([3]; blood, after single dose): about 10 days | duration of sustained BTK occupancy ([3]; blood, single doses of 30 mg and higher): > 24 h | time of peak target (BTK) occupancy post dose ([3]; peripheral blood): 0.5 h
